Source: US20220370485A1, “COMPOUNDS AND METHODS FOR TREATING OR PREVENTING CARDIOVASCULAR DISEASES AND CONDITIONS” (Lexicon Pharmaceuticals, Inc., priority 2021, published 2022)
Where two headings read alike, the source gives them in different places.

Experiments:
[1] = system: patients with type 2 diabetes mellitus, chronic kidney disease, and additional cardiovascular risk; settings: T2DM + CKD patients
[2] = system: patients with type 2 diabetes mellitus recently hospitalized for worsening heart failure; settings: for Difference (95% CI) in least-squares mean change in KCCQ-12 score to month 4 / Difference (95% CI) in least-squares mean change in estimated GFR: sotagliflozin minus placebo
[3] = sotagliflozin vs placebo, listed as sotagliflozin
[4] = sotagliflozin vs placebo, time-to-event analysis
[5] = T2DM + worsening heart failure, N = 608
[6] = T2DM + worsening heart failure, N = 608, listed as sotagliflozin
[7] = sotagliflozin vs. placebo, T2DM + worsening heart failure
[8] = sotagliflozin vs. placebo, T2DM + worsening heart failure, listed as sotagliflozin

Structure (SMILES): CCOc1ccc(Cc2cc([C@@H]3O[C@H](SC)[C@@H](O)[C@H](O)[C@H]3O)ccc2Cl)cc1 [Sotagliflozin, (2S,3R,4R,5S,6R)-2-(4-chloro-3-(4-ethoxybenzyl)phenyl)-6-(methylthio)tetrahydro-2H-pyran-3,4,5-triol]
- Primary end point: total no. of deaths from cardiovascular causes, hospitalizations for HF, and urgent visits for HF - event rate ([1]; 200 mg once daily increased to 400 mg, N = 5292, median follow-up 16 months): 5.6 no. of events/100 patient-yr
- Deaths from any cause - event rate ([1]; N = 5292): 3.5 no. of events/100 patient-yr
- Deaths from any cause - no. of events ([1]; N = 5292): 246
- Deaths from cardiovascular causes - event rate ([1]; N = 5292): 2.2 no. of events/100 patient-yr
- Deaths from cardiovascular causes - no. of events ([1]; N = 5292): 155
- First occurrence of a sustained decrease of ≥50% in the eGFR from baseline for ≥30 days, long-term dialysis, renal transplantation, or sustained eGFR of <15 ml/min/1.73 m2 for ≥30 days - event rate ([1]; N = 5292): 0.5 no. of events/100 patient-yr
- First occurrence of a sustained decrease of ≥50% in the eGFR from baseline for ≥30 days, long-term dialysis, renal transplantation, or sustained eGFR of <15 ml/min/1.73 m2 for ≥30 days - no. of events ([1]; N = 5292): 37
- Primary end point: total no. of deaths from cardiovascular causes, hospitalizations for HF, and urgent visits for HF - no. of events ([1]; N = 5292): 400
- Total no. of deaths from cardiovascular causes, hospitalizations for HF, nonfatal myocardial infarctions, and nonfatal strokes - event rate ([1]; N = 5292): 7.6 no. of events/100 patient-yr
- Total no. of deaths from cardiovascular causes, hospitalizations for HF, nonfatal myocardial infarctions, and nonfatal strokes - no. of events ([1]; N = 5292): 541
- Total no. of deaths from cardiovascular causes, hospitalizations for HF, urgent visits for HF, and events of HF during hospitalization - event rate ([1]; N = 5292): 6.4 no. of events/100 patient-yr
- Total no. of deaths from cardiovascular causes, hospitalizations for HF, urgent visits for HF, and events of HF during hospitalization - no. of events ([1]; N = 5292): 453
- Total no. of deaths from cardiovascular causes, nonfatal myocardial infarctions, and nonfatal strokes - event rate ([1]; N = 5292): 4.8 no. of events/100 patient-yr
- Total no. of deaths from cardiovascular causes, nonfatal myocardial infarctions, and nonfatal strokes - no. of events ([1]; N = 5292): 343
- Total no. of hospitalizations for HF and urgent visits for HF - event rate ([1]; N = 5292): 3.5 no. of events/100 patient-yr
- Total no. of hospitalizations for HF and urgent visits for HF - no. of events ([1]; N = 5292): 245
- Deaths from any cause - Hazard Ratio (95% CI) ([1]; sotagliflozin vs placebo): 0.99 (0.83-1.18)
- Deaths from cardiovascular causes - Hazard Ratio (95% CI) ([1]; sotagliflozin vs placebo): 0.90 (0.73-1.12)
- Primary end point: total no. of deaths from cardiovascular causes, hospitalizations for HF, and urgent visits for HF - Hazard Ratio (95% CI) ([1]; sotagliflozin vs placebo): 0.74 (0.63-0.88)
- Total no. of deaths from cardiovascular causes, hospitalizations for HF, nonfatal myocardial infarctions, and nonfatal strokes - Hazard Ratio (95% CI) ([1]; sotagliflozin vs placebo): 0.72 (0.63-0.83)
- Total no. of deaths from cardiovascular causes, hospitalizations for HF, urgent visits for HF, and events of HF during hospitalization - Hazard Ratio (95% CI) ([1]; sotagliflozin vs placebo): 0.76 (0.64-0.89)
- Total no. of deaths from cardiovascular causes, nonfatal myocardial infarctions, and nonfatal strokes - Hazard Ratio (95% CI) ([1]; sotagliflozin vs placebo): 0.77 (0.65-0.91)
- Total no. of hospitalizations for HF and urgent visits for HF - Hazard Ratio (95% CI) ([1]; sotagliflozin vs placebo): 0.67 (0.55-0.82)
- Deaths from cardiovascular causes - Hazard Ratio (95% CI) [1, 3]: 0.90
- Primary end point: total no. of deaths from cardiovascular causes, hospitalizations for HF, and urgent visits for HF - Hazard Ratio (95% CI) [1, 3]: 0.74
- Total no. of hospitalizations for HF and urgent visits for HF - Hazard Ratio (95% CI) [1, 3]: 0.67
- Original coprimary end point: first occurrence of death from cardiovascular causes or hospitalization for heart failure - hazard ratio [1, 4]: 0.77
- Original coprimary end point: first occurrence of death from cardiovascular causes, nonfatal myocardial infarction, or nonfatal stroke - hazard ratio [1, 4]: 0.84
- Deaths from any cause - rate [2, 5]: (13.5) events per 100 person-years of follow-up
- Deaths from any cause - total no. of events [2, 5]: 65
- Deaths from cardiovascular causes - rate [2, 5]: (10.6) events per 100 person-years of follow-up
- Deaths from cardiovascular causes - total no. of events [2, 5]: 51
- Deaths from cardiovascular causes, hospitalizations and urgent visits for heart failure, and events of heart failure during hospitalization - rate [2, 5]: (54.7) events per 100 person-years of follow-up
- Deaths from cardiovascular causes, hospitalizations and urgent visits for heart failure, and events of heart failure during hospitalization - total no. of events [2, 5]: 263
- Deaths from cardiovascular causes, hospitalizations for heart failure, nonfatal myocardial infarctions, and nonfatal strokes - rate [2, 5]: (51.4) events per 100 person-years of follow-up
- Deaths from cardiovascular causes, hospitalizations for heart failure, nonfatal myocardial infarctions, and nonfatal strokes - total no. of events [2, 5]: 247
- Hospitalizations and urgent visits for heart failure - rate [2, 5]: (40.4) events per 100 person-years of follow-up
- Hospitalizations and urgent visits for heart failure - total no. of events [2, 5]: 194
- Least-squares mean change in estimated GFR ([2]; T2DM + worsening heart failure, N = 608, during follow-up): −0.34 ml/min/1.73 m^2
- Deaths from any cause - rate [2, 6]: 13.5 events per 100 person-years of
- Deaths from cardiovascular causes - rate [2, 6]: 10.6 events per 100 person-years of
- Least-squares mean change in KCCQ-12 score to month 4 ([2]; T2DM + worsening heart failure, N = 608, scores range from 0 to 100): 17.7
- Primary end point: deaths from cardiovascular causes and hospitalizations and urgent visits for heart failure - total no. of events ([2]; T2DM patients with recent worsening heart failure, 200 mg once daily increased to 400 mg, N = 608, median follow-up 9.0 months): 245
- Primary end point: deaths from cardiovascular causes and hospitalizations and urgent visits for heart failure - rate ([2]; T2DM patients with recent worsening heart failure, N = 608): (51.0) events per 100 person-years of follow-up
- Primary end point: deaths from cardiovascular causes and hospitalizations and urgent visits for heart failure - rate ([2]; T2DM patients with recent worsening heart failure, N = 608, listed as sotagliflozin): 51.0 events per 100 person-years of
- Absolute difference in rate of primary end-point events ([2]; sotagliflozin group vs placebo group (51.0 vs 76.3), 95% CI, 5.1 to 45.6): 25.3 events per 100 patient-years
- Difference (95% CI) in least-squares mean change in KCCQ-12 score to month 4 [2]: 4.1 (1.3 to 7.0) points
- Difference (95% CI) in least-squares mean change in estimated GFR [2]: −0.16 (−1.30 to 0.98) ml/min/1.73 m^2
- Difference (95% CI) in least-squares mean change in KCCQ-12 score to month 4 ([2]; listed as sotagliflozin): 4.1 points
- Difference (95% CI) in least-squares mean change in estimated GFR ([2]; listed as sotagliflozin): −0.16 ml/min/1.73 m^2
- Total number of deaths from cardiovascular causes and hospitalizations for heart failure, excluding urgent visits for heart failure - hazard ratio ([2]; sotagliflozin vs. placebo, 95% CI, 0.53 to 0.88): 0.68
- Deaths from any cause - Hazard Ratio (95% CI) [2, 7]: 0.82 (0.59 to 1.14)
- Deaths from cardiovascular causes - Hazard Ratio (95% CI) [2, 7]: 0.84 (0.58 to 1.22)
- Deaths from cardiovascular causes, hospitalizations and urgent visits for heart failure, and events of heart failure during hospitalization - Hazard Ratio (95% CI) [2, 7]: 0.68 (0.54 to 0.86)
- Deaths from cardiovascular causes, hospitalizations for heart failure, nonfatal myocardial infarctions, and nonfatal strokes - Hazard Ratio (95% CI) [2, 7]: 0.72 (0.56 to 0.92)
- Hospitalizations and urgent visits for heart failure - Hazard Ratio (95% CI) [2, 7]: 0.64 (0.49 to 0.83)
- Primary end point: deaths from cardiovascular causes and hospitalizations and urgent visits for heart failure - Hazard Ratio (95% CI) [2, 7]: 0.67 (0.52 to 0.85)
- Deaths from any cause - Hazard Ratio (95% CI) [2, 8]: 0.82
- Deaths from cardiovascular causes - Hazard Ratio (95% CI) [2, 8]: 0.84
- Primary end point: deaths from cardiovascular causes and hospitalizations and urgent visits for heart failure - Hazard Ratio (95% CI) [2, 8]: 0.67
- Original primary end point: first occurrence of either death from cardiovascular causes or hospitalization for heart failure - hazard ratio ([2]; sotagliflozin vs. placebo, time-to-event analysis, 95% CI, 0.56 to 0.89): 0.71
- Subgroup analyses of the primary efficacy end point ([2]; subgroups by geographic region, LVEF (<50% or ≥50%), timing of first dose, sex, age, renal function (FIG. 4)): consistent treatment effect
